Conditions: Liquid; for viscosity: Vibrating wire viscometry; for vapor or sublimation pressure: Closed cell (Static) method

CCF [fluoroethane]
viscosity [mPa·s]
Conditions	5000 kPa	10000 kPa	15000 kPa	20000 kPa	25000 kPa	30000 kPa
243.17 K	0.232	0.2433	0.2538	0.2643	0.2748	0.285
253.16 K	0.2037	0.2128	0.2214	0.2315	0.2396	0.2489
263.17 K	0.1834	0.1926	0.2012	0.2097	0.2177	0.2262
273.15 K	0.1642	0.1729	0.1812	0.1894	0.1971	0.205
283.15 K	0.147	0.1553	0.1637	0.1713	0.1794	0.1868
293.15 K	0.1322	0.1406	0.1489	0.1566	0.1642	0.1717
303.15 K	0.1196	0.1279	0.136	0.1437	0.1512	0.1584
313.14 K	0.1078	0.1164	0.1242	0.132	0.1393	0.1468
323.16 K	0.0968	0.1054	0.1134	0.1209	0.1282	0.1356
333.16 K	0.0866	0.0958	0.1039	0.1113	0.1181	0.1247
343.16 K	0.0766	0.0866	0.0953	0.1027	0.1094	0.1159
353.16 K	0.0666	0.0782	0.0871	0.0946	0.1014	0.108
363.16 K	0.0562	0.0699	0.0796	0.0873	0.0943	0.1005

Conditions	vapor or sublimation pressure [kPa]	viscosity [mPa·s]
243.17 K	140	0.2238
253.16 K	210	0.1961
263.17 K	310	0.175
273.15 K	440	0.1565
283.15 K	600	0.1395
293.15 K	810	0.1247
303.15 K	1060	0.1122
313.14 K	1360	0.1003
323.16 K	1730	0.0902
333.16 K	2170	0.0803
343.16 K	2680	0.0708
353.16 K	3280	0.0614
363.16 K	3990	0.0514
